Measurements from patent US20250009743A1, “METHODS OF TREATING CANCERS USING STING AGONISTS” (Dana-Farber Cancer Institute, Inc., priority 2021, published 2025).

Experiments:
[1] = test system: BP tumors; experiment: Flow cytometry of intratumoral immune cells of BP tumors; format: in vivo, mouse
Protocol: To obtain single-cell suspensions, tumors were excised, minced and dissociated in collagenase/hyaluronidase buffer [DMEM with 5% FBS, 10 mM HEPES (Gibco), 100 μg/mL penicillin-streptomycin, 20 μg/mL DNase I (StemCell) and 1× collagenase/hyaluronidase (StemCell)] for 45 min at 37° C. with agitation, followed by treatment with ammonium-chloride-potassium (ACK) buffer (Lonza) for red blood cell (RBC) lysis, and strained through a 70 μm strainer to remove undigested tumor tissues. Spleens and tumor-draining lymph nodes (TDLNs) were mechanically dissociated by passing the tissues through a 70 μm strainer using the plunger of a 5 ml syringe, and RBCs were lysed as described above.
(§1) For flow cytometry analyses of tumor and TDLN samples, single-cell suspensions were obtained as described above (Tissue Digestion). Cells were stained in cold FACS buffer (PBS containing 0.2% BSA and 5 mM EDTA) with LIVE/DEAD Fixable Aqua Dead Cell Stain (Thermo Fisher) for 30 min on ice, followed by blocking with anti-CD16/32 (BioLegend) for 20 min on ice. Cells were then incubated in FACS buffer for 30 min on ice with antibodies specific to CD45 (clone 30-F11, BioLegend), TCR β chain (clone H57-597, BioLegend), CD38 (clone 145-2C11, BioLegend), CD4 (clone RM4-5, BioLegend), CD8a (clone 53-6.7, BioLegend), PD-1 (clone 29F.1A12, BioLegend), CD44 (clone IM7, BioLegend), CD62L (clone MEL-14, BioLegend), IFN-γ (clone XMG1.2, BioLegend), TNF-α (clone MP6-XT22, BioLegend), Granzyme B (clone NGZB, eBioscience), CD11c (clone N418, BioLegend), I-A/I-E (clone M5/114.15.2, BioLegend), CD80 (clone 16-10A1, BioLegend), CD86 (clone GL-1, BioLegend), CD103 (clone 2E7, BioLegend), CD11b (M1/70, BioLegend), F4/80 (clone BM8, BioLegend), phospho-TBK1 (Ser172) (clone D52C2, Cell Signaling Tech.) or phospho-IRF-3 (Ser396) (clone D601M, Cell Signaling Tech.). For intracellular staining, Foxp3/Transcription Factor Staining Buffer Set (eBioscience, #00-5523-00) was used for fixation and permeabilization. For cytokine analysis, cells were stimulated with Leukocyte Activation Cocktail with protein transport inhibitor Brefeldin A (BD Biosciences, #550583) at 37° C. for 4 hours prior to the staining. Analysis of ϵ-HA2X (Ser139) was performed according to manufacturer's instructions. Briefly, ice-cold 70% ethanol (Decon) was added dropwise to the cell pellet while vortexing. Cells were then incubated at −20° C. for 1 hour and washed three times with cold staining buffer. For the staining, 5 μL p-HA2X antibody (clone 2F3, BioLegend) was added to approximately 1×10^6 cells in 100 μL staining buffer and incubated at 4° C. for 30 min. For Annexin V and 7-AAD staining, cells were detached with accutase (Sigma, #A6964). […] All data were analyzed using FlowJo software.

[2] = test system: BP tumor cells; experiment: DNA damage in BP tumor cells (cytosolic dsDNA staining, γ-H2AX flow cytometry); format: cell-based, mouse
Protocol: as §1, with “buffer.” for “buffer. For the staining, 5 μL p-HA2X antibody (clone 2F3, BioLegend) was added to approximately 1×10^6 cells in 100 μL staining buffer and incubated at 4° C. for 30 min. For Annexin V and 7-AAD staining, cells were detached with accutase (Sigma, #A6964).”
BRCA1-deficient tumor cells were cultured on glass coverslips in 6-well plates. […] Fluorescence intensity of cytosolic dsDNA were analyzed using ImageJ/Fiji software as described in Pantelidou C, et al. Cancer Discov 2019; 9 (6): 722-37.

[3] = test system: orthotopic BP tumors; experiment: BP (Brca1−/− Trp53−/−) orthotopic tumor growth in FVB mice; format: in vivo, mouse
Protocol: Primary mammary tumor cells for orthotopic injection were resuspended in serum-free DMEM containing 40% matrigel (Corning). […] Tumor growth was examined by measuring the greatest longitudinal diameter (length) and the greatest transverse diameter (width) with digital calipers, and tumor volume was calculated by use of the modified ellipsoid formula (0.52×length×width2). Tumors were measured 2-3 times a week. All tumor measurements within single cohorts were performed by the same researcher. Tumor-bearing mice were randomized prior to start of treatment. Drug treatments were started when mean tumor volumes approximated 50-100 mm3. Mice were euthanized by CO2 inhalation when tumor volumes met humane endpoints described in the IACUC (20 mm diameter) protocols or upon severe health deterioration.
For intratumoral injection (i.t.), 250 μg DMXAA (approximately 10 mg/kg body weight) was administered once per week for 3 doses. For i.p. injections, DMXAA was administered at a dose of 10 mg/kg body weight once weekly and terminated if tumor size exceeded 600 mm3. […] Anti-mouse CSF1R antibody (CS7, Eli Lilly) was dosed at 40 mg/kg via i.p. every 3 days.

[4] = olaparib 50 mg/kg i.p. q.d., DMXAA 10 mg/kg intratumoral once per week, 3 doses, start around 100 mm3, FIG. 9A

Question: `Cc1ccc2c(=O)c3cccc(CC(=O)O)c3oc2c1C` [DMXAA, 5,6-dimethyl-xanthenone-4-acetic acid] was tested. Which “production of anti-tumor cytokines (IFNg, Granzyme B, TNFa) in CD8+ and CD4+ T cells” value ([1]; after 21 days of treatments, DMXAA intratumoral, FIG. 9B-9C) did it give?
Answer: strongly up-regulated

Question: And the “BP cells' DNA damage (gH2AX) in response to olaparib” value ([2]; BP cells treated with CM of DMXAA-pre-treated TEMs, FIG. 7I)?
Answer: restored

Question: What about the BP tumor growth [3, 4] of the same compound?
Answer: modest tumor growth inhibition

Question: Which results are given for `O=C(c1cc(Cc2n[nH]c(=O)c3ccccc23)ccc1F)N1CCN(C(=O)C2CC2)CC1` [olaparib]?
Answer: population of tumor-associated macrophages (TAMs) ([1]; 21 days of treatment): not significantly affected; CD8+ T cells and effector CD8+ T cells in tumors ([1]; after seven days of treatment): not significantly changed; proportion of PD-1+CD8+ T cells ([1]; after seven days of treatment): increased; cytosolic dsDNA ([2]; 5 μM olaparib, two days, FIG. 5B): induced accumulation of cytosolic dsDNAs; γ-H2AX ([2]; olaparib, FIG. 5C): two-fold increase; BP tumor growth ([3]; olaparib 50 mg/kg i.p. daily, FIG. 1C): modest; BP tumor growth [3, 4]: modest tumor growth inhibition
